Experiments:
Acetylcholinesterase = Acetylcholinesterase (Electrophorus electricus, UniProt O42275); experiment: Cholinesterase Inhibition Assay; conditions: pH 8
Description: (§1) The target compounds were dissolved in a mixture of 1 mL DMSO and 9 mL methanol and diluted in 0.1 M KH2PO4/K2HPO4 buffer (pH 8.0) to obtain final concentrations.For each compound, five different concentrations were tested to obtain the range of 20-80% enzyme inhibition. The assay medium was composed of 3 mL of phosphatebuffer (0.1 M, pH 8.0), 100 µL of DTNB (0.01 M), 100 µL of enzyme solution (AChE or BuChE, 2.5 unit/mL), and 50 µL of test compound.

[1] = molecular target: Carboxylic ester hydrolase (Equus caballus, UniProt Q9N1N9); experiment: Cholinesterase Inhibition Assay; conditions: pH 8
Chain of Carboxylic ester hydrolase (Q9N1N9 whole entry): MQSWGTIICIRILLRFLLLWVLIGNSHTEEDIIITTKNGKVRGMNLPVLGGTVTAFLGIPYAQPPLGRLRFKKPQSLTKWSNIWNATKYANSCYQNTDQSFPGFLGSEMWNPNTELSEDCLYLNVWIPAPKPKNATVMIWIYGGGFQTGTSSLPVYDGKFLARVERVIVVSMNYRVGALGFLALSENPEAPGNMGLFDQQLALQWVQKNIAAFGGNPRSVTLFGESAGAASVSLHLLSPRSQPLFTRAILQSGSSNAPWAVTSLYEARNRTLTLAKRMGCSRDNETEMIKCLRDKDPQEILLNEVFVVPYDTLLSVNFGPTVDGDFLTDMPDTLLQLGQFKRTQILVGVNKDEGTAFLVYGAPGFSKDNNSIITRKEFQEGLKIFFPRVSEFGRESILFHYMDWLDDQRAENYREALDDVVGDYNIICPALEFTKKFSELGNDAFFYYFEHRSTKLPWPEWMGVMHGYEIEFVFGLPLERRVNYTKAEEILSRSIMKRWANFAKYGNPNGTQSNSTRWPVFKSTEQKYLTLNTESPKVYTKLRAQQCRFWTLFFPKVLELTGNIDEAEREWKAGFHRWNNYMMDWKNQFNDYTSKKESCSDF
Description: as §1

Chain of Acetylcholinesterase (O42275 whole entry): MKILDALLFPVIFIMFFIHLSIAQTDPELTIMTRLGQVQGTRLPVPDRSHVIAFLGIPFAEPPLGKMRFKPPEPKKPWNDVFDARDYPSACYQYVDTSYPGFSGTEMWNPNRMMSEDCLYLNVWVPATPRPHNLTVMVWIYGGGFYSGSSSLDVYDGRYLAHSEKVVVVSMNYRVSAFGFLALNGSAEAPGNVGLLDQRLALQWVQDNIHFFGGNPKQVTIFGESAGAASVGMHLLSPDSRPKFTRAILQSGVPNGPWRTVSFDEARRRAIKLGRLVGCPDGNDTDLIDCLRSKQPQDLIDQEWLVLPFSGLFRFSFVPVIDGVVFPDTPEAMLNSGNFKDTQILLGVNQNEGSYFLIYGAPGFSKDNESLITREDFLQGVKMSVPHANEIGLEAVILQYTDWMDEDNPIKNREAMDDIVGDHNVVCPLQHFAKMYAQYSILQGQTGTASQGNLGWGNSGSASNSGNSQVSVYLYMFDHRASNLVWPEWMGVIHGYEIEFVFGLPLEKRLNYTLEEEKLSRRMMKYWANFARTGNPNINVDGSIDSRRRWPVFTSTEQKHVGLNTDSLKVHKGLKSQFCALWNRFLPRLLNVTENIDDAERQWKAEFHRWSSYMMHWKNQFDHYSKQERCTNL

O=C(COc1cc(=O)oc2ccccc12)OCc1cn(Cc2ccccc2Br)nn1 [(1-(2-Bromobenzyl)-1H-1,2,3-triazol-4-yl)methyl 2-(2-oxo-2H-chromen-4-yloxy)acetate (8a)]
IC50 (Acetylcholinesterase): 2.14 µM
IC50 [1]: 43 µM

O=C(COc1cc(=O)oc2ccccc12)OCc1cn(Cc2ccccc2Cl)nn1 [(1-(2-Chlorobenzyl)-1H-1,2,3-triazol-4-yl)methyl 2-(2-oxo-2H-chromen-4-yloxy)acetate (8k)]
IC50 (Acetylcholinesterase): 0.18 µM
IC50 [1]: > 50 µM

O=C(COc1cc(=O)oc2ccccc12)OCc1cn(Cc2ccccc2F)nn1 [(1-(2-Fluorobenzyl)-1H-1,2,3-triazol-4-yl)methyl 2-(2-oxo-2H-chromen-4-yloxy)acetate (8h)]
IC50 (Acetylcholinesterase): 5.7 µM
IC50 [1]: > 50 µM

Cc1ccccc1Cn1cc(COC(=O)COc2cc(=O)oc3ccccc23)nn1 [(1-(2-Methylbenzyl)-1H-1,2,3-triazol-4-yl)methyl 2-(2-oxo-2H-chromen-4-yloxy)acetate (8f)]
IC50 (Acetylcholinesterase): 1.79 µM
IC50 [1]: > 50 µM

O=C(COc1cc(=O)oc2ccccc12)OCc1cn(Cc2ccccc2[N+](=O)[O-])nn1 [(1-(2-Nitrobenzyl)-1H-1,2,3-triazol-4-yl)methyl 2-(2-oxo-2H-chromen-4-yloxy)acetate (8n)]
IC50 (Acetylcholinesterase): 0.53 µM
IC50 [1]: > 50 µM

O=C(COc1cc(=O)oc2ccccc12)OCc1cn(Cc2cccc(Br)c2)nn1 [(1-(3-Bromobenzyl)-1H-1,2,3-triazol-4-yl)methyl 2-(2-oxo-2H-chromen-4-yloxy)acetate (8b)]
IC50 (Acetylcholinesterase): 1.79 µM
IC50 [1]: > 50 µM

O=C(COc1cc(=O)oc2ccccc12)OCc1cn(Cc2cccc(Cl)c2)nn1 [(1-(3-Chlorobenzyl)-1H-1,2,3-triazol-4-yl)methyl 2-((2-oxo-2H-chromen-4-yl)oxy)acetate (8l)]
IC50 (Acetylcholinesterase): 0.34 µM
IC50 [1]: > 50 µM

O=C(COc1cc(=O)oc2ccccc12)OCc1cn(Cc2cccc(F)c2)nn1 [(1-(3-Fluorobenzyl)-1H-1,2,3-triazol-4-yl)methyl 2-(2-oxo-2H-chromen-4-yloxy)acetate (8i)]
IC50 (Acetylcholinesterase): 1.64 µM
IC50 [1]: > 50 µM

COc1cccc(Cn2cc(COC(=O)COc3cc(=O)oc4ccccc34)nn2)c1 [(1-(3-Methoxybenzyl)-1H-1,2,3-triazol-4-yl)methyl 2-(2-oxo-2H-chromen-4-yloxy)acetate (8d)]
IC50 (Acetylcholinesterase): 7 µM
IC50 [1]: > 50 µM

O=C(COc1cc(=O)oc2ccccc12)OCc1cn(Cc2ccc(Br)cc2)nn1 [(1-(4-Bromobenzyl)-1H-1,2,3-triazol-4-yl)methyl 2-(2-oxo-2H-chromen-4-yloxy)acetate (8c)]
IC50 (Acetylcholinesterase): 87.9 µM
IC50 [1]: > 50 µM

O=C(COc1cc(=O)oc2ccccc12)OCc1cn(Cc2ccc(Cl)cc2)nn1 [(1-(4-Chlorobenzyl)-1H-1,2,3-triazol-4-yl)methyl 2-(2-oxo-2H-chromen-4-yloxy)acetate (8m)]
IC50 (Acetylcholinesterase): 13 µM
IC50 [1]: > 50 µM

O=C(COc1cc(=O)oc2ccccc12)OCc1cn(Cc2ccc(F)cc2)nn1 [(1-(4-Fluorobenzyl)-1H-1,2,3-triazol-4-yl)methyl 2-(2-oxo-2H-chromen-4-yloxy)acetate (8j)]
IC50 (Acetylcholinesterase): 2.54 µM
IC50 [1]: > 50 µM

COc1ccc(Cn2cc(COC(=O)COc3cc(=O)oc4ccccc34)nn2)cc1 [(1-(4-Methoxybenzyl)-1H-1,2,3-triazol-4-yl)methyl 2-(2-oxo-2H-chromen-4-yloxy)acetate (8e)]
IC50 (Acetylcholinesterase): 104 µM
IC50 [1]: > 50 µM

Cc1ccc(Cn2cc(COC(=O)COc3cc(=O)oc4ccccc34)nn2)cc1 [(1-(4-Methylbenzyl)-1H-1,2,3-triazol-4-yl)methyl 2-(2-oxo-2H-chromen-4-yloxy)acetate (8g)]
IC50 (Acetylcholinesterase): 90 µM
IC50 [1]: > 50 µM

O=C(COc1cc(=O)oc2ccccc12)OCc1cn(Cc2ccc([N+](=O)[O-])cc2)nn1 [(1-(4-Nitrobenzyl)-1H-1,2,3-triazol-4-yl)methyl 2-(2-oxo-2H-chromen-4-yloxy)acetate (8o)]
IC50 (Acetylcholinesterase): 137 µM
IC50 [1]: > 50 µM

O=C(COc1cc(=O)oc2ccccc12)OCc1cn(Cc2ccccc2)nn1 [(1-Benzyl-1H-1,2,3-triazol-4-yl)methyl 2-((2-oxo-2H-chromen-4-yl)oxy)acetate (8p)]
IC50 (Acetylcholinesterase): 15.8 µM
IC50 [1]: > 50 µM

Reference: BindingDB's records for doi:10.1111/cbdd.12588 (Tehran University of Medical Sciences, 2015)
